The test system of one assay is T1, StspM1.
T1 construct: recombinant from E. coli BL21 Gold (DE3), Ni-NTA purified
The assay is described as follows: MTase-Glo bioluminescence assay (SAH formation), Michaelis-Menten. It is filed as biochemical, Streptomyces sp. HPH0547.

Assay [1] concerns the target C3-methyltransferase StspM1 from Streptomyces sp. HPH0547 (Streptomyces sp. HPH0547). Description: SEC; size exclusion chromatography to determine the oligomerization state; measured weight 70.5 kDa against 61.8 kDa for a dimer. In general terms: SEC sorts molecules by how far they enter the pores of the column.

The record followed here is paper PMC10775177, “Application of the C3-Methyltransferase StspM1 for the Synthesis of the Natural Pyrroloindole Motif” (ACS Catalysis, 2023).

For orientation: Km means the substrate concentration at which the rate is half of its maximum. Take `O=C1N[C@@H](Cc2c[nH]c3ccccc23)C(=O)N[C@H]1Cc1c[nH]c2ccccc12` [7a, LL-cWW]: the Km in the assay on StspM1 (first methylation, 1.5 μM enzyme, co-substrate SAM fixed at 50 μM, cWW 0.2-200 μM) is 3.86 µM.
As for `O=C1N[C@H](Cc2c[nH]c3ccccc23)C(=O)N[C@@H]1Cc1c[nH]c2ccccc12` [7b, DD-cWW], the Km in the assay on StspM1 (first methylation, 1.5 μM enzyme, co-substrate SAM fixed at 50 μM, cWW 0.2-200 μM, compound label misprinted as 7c) turned out to be 14.8 µM.
Regarding `C[C@@]12C[C@H]3C(=O)N[C@@H](Cc4c[nH]c5ccccc45)C(=O)N3[C@@H]1Nc1ccccc12` [compound 14, single-methylated LL-cWW], the Km with StspM1 (second methylation step) was 32.5 µM.
As usually defined, the stoichiometry N is the number of molecules, sites or subunits per partner or assembly. In turn, “C3-methyltransferase StspM1 from Streptomyces sp. HPH0547 (enzyme)” returned a stoichiometry N in assay [1] of 2.
